Patent US20250136568A1, “FUSED HETEROCYCLIC COMPOUNDS AS PI3KALPHA INHIBITORS” (Nanjing Zenshine Pharmaceuticals Co., Ltd., priority 2021, published 2025)
Where two headings read alike, the source gives them in different places.

Tests used:
[1] = tested on: PI3Kα H1047R mutation cell line MDA-MB-453; assay: Cell Proliferation IC50 Assay (CellTiter-Glo), MDA-MB-453; assay type: cell-based; details: read-out: IC50 (μM) MDA-MB-453
How it was run: (§1)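 Cells were seeded and left overnight, then exposed to serially diluted compound (200-fold final dilution) for 72 h at 37 °C, 5% CO2. Viability was read by CellTiter-Glo luminescence. Percent inhibition and IC50 were calculated from the signal.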

[2] = tested on: PI3Kα H1047R mutation cell line T-47D; assay: Cell Proliferation IC50 Assay (CellTiter-Glo), T-47D; assay type: cell-based; details: T47D (H1047R), 72 hours, CellTiter-Glo, read-out: IC50 (μM) T47D
How it was run: as §1

[3] = tested on: PI3Kα wide type cell line SK-BR-3; assay: Cell Proliferation IC50 Assay (CellTiter-Glo), SK-BR-3; assay type: cell-based; details: SK-BR-3 (PI3Kα wild type), 72 hours, CellTiter-Glo, read-out: IC50 (μM) SK-BR-3
How it was run: as §1

PI3Kα WT = PI3Kα WT (Homo sapiens, UniProt P42336); assay: pAKT (S473) ELISA assay in WT cell line (SK-BR-3); assay type: cell-based; details: SK-BR-3 cells, two hours compound, IGF-1 50 ng/ml stimulation
Protocol: (§2) Cells were serum starved for 4 hours prior to compound treatment; compound solution was added to each well (3-fold serial dilution starting at desired concentration) for two hours in serum-free medium, followed by stimulation with IGF-1 for 60 minutes at a final concentration of 50 ng/ml as noted. After compound treatment and stimulation, discarded the supernatant and cells were lysed by cell lysis buffer (Cell Signaling Technology, #9803S). The lysate was transferred to the ELISA plate, the Phospho-AKT (Ser473) ELISA was performed as the manufacturer's directions (Cell Signaling Technology, #7160CA).

PI3Kβ = target: T1, PI3Kβ (Homo sapiens, UniProt P42338); assay: Selectivity study, p-AKT (Ser473) HTRF assay in 786-O cells; assay type: cell-based; details: 786-O cell, 1 hour incubation, serum-free medium
T1 construct: endogenous in cells; host or cells: 786-O
Protocol: The following day, the complete medium was replaced with serum-free medium, 3-fold serial diluted compound solution in serum-free medium was added to each well according to the plate map. After 1 hour incubation, removed cell supernatant carefully and added supplemented lysis buffer (1×) for 45 min. The lysate was transferred to a 384-well small volume white plate, the CisBio Phospho-AKT (Ser473) HTRF assay was performed as the manufacturer's directions (Cisbio, #64AKSPEG).

[4] = In vivo pharmacokinetics in mice
Protocol: Dosing solutions were prepared at 0.5 mg/mL in 10% DMSO/10% HP—3-CD/80% water. A dosing solution was administered to Male CD1 mice (4-6 weeks, 20-30 g, 3 mice each group) via intravenous (TV) bolus at 1 mg/kg and by oral gavage (PO) at 5 mg/kg. The dose formulations were kept at room temperature and administrated within 30 mins for IV/PO. Blood samples (0.3 mL each time point) were collected into tubes containing ethylenediaminetetraacetic acid (K2EDTA) as the anticoagulant at 0, 0033, 0.083, 0.25, 05, 1, 2, 4, 8 and 24 hours post dose for IV administrated and 0, 0.083, 0.25, 0.5, 1, 2, 4, 8 and 24 hours post dose for PO administration. The blood sample were then centrifuged for 5 minutes in centrifuge refrigerated at 4° C. The samples were stored in a freezer at −75±15° C. prior to analysis. Concentrations of Compound in the plasma samples were analyzed using a LC-MS/MS method. WinNonlin (Phoenix™, version 8.3) or other similar software were used for pharmacokinetic calculations. The following pharmacokinetic parameters were calculated, whenever possible from the plasma concentration versus time data: MRT, Cmax, Tmax, AUClast, AUCinf, F %, Number of Points for Regression.

PI3Kα H1047R mutant = PI3Kα H1047R mutant (Homo sapiens, UniProt P42336, H1047R); assay: pAKT (S473) ELISA assay in PI3Kα H1047R mutant cell line (T47D); assay type: cell-based; details: T47D cells, two hours compound, IGF-1 50 ng/ml stimulation
Protocol: as §2

[5] = Homo sapiens, MDA-MB-453 (H1047R), 72 hours, CellTiter-Glo
[6] = MDA-MB-453 (H1047R), 72 hours, CellTiter-Glo
[7] = CD1 mice, IV bolus at 1 mg/kg and PO at 5 mg/kg

Sequence of PI3Kα H1047R mutant (P42336 whole entry H1047R): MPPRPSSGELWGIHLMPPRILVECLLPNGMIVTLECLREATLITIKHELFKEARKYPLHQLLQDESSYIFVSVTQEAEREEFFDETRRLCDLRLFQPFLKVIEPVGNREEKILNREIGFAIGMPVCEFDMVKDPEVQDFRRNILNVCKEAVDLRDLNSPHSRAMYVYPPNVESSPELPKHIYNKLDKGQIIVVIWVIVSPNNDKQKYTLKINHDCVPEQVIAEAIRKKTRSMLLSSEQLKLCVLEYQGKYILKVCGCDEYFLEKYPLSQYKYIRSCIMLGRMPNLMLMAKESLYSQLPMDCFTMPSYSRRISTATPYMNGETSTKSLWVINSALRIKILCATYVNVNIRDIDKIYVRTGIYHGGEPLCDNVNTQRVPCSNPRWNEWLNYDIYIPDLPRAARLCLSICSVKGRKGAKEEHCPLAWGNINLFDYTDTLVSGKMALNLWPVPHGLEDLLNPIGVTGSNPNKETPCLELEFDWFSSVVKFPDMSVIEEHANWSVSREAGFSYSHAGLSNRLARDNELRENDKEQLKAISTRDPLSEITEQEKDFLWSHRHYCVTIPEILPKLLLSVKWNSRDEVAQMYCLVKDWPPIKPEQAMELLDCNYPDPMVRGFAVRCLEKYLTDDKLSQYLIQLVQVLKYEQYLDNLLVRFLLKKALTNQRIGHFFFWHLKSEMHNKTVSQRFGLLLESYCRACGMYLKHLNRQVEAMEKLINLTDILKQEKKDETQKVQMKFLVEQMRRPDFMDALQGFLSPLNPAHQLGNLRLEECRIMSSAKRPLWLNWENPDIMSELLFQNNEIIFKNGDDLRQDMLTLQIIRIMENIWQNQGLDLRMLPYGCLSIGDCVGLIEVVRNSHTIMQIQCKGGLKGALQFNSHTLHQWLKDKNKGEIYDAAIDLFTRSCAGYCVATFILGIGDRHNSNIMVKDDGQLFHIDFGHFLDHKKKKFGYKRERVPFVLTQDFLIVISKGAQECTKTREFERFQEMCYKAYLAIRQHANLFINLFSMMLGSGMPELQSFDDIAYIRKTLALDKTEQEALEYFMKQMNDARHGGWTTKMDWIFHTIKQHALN
Sequence of PI3Kα H1047R mutant (P27986 whole entry partner): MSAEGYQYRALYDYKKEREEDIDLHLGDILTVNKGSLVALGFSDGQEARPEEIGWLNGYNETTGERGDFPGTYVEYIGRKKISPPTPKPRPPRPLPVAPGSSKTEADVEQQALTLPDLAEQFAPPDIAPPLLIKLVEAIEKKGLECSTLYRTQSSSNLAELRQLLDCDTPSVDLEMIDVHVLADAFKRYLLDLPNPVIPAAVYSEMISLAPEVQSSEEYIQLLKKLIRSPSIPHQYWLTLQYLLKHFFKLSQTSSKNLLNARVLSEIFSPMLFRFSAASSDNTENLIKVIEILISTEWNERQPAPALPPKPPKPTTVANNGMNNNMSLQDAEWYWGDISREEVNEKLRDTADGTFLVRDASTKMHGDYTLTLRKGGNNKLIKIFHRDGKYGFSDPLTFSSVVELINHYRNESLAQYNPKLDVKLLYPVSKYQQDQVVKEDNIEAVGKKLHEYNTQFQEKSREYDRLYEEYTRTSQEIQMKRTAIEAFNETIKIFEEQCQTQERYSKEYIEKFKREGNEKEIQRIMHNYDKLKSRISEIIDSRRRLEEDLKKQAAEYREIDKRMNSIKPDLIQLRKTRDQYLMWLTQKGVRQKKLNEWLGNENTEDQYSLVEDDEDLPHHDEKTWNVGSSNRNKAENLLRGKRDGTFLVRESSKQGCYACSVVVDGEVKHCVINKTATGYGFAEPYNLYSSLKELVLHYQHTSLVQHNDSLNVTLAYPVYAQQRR
T1 sequence (P42338 whole entry): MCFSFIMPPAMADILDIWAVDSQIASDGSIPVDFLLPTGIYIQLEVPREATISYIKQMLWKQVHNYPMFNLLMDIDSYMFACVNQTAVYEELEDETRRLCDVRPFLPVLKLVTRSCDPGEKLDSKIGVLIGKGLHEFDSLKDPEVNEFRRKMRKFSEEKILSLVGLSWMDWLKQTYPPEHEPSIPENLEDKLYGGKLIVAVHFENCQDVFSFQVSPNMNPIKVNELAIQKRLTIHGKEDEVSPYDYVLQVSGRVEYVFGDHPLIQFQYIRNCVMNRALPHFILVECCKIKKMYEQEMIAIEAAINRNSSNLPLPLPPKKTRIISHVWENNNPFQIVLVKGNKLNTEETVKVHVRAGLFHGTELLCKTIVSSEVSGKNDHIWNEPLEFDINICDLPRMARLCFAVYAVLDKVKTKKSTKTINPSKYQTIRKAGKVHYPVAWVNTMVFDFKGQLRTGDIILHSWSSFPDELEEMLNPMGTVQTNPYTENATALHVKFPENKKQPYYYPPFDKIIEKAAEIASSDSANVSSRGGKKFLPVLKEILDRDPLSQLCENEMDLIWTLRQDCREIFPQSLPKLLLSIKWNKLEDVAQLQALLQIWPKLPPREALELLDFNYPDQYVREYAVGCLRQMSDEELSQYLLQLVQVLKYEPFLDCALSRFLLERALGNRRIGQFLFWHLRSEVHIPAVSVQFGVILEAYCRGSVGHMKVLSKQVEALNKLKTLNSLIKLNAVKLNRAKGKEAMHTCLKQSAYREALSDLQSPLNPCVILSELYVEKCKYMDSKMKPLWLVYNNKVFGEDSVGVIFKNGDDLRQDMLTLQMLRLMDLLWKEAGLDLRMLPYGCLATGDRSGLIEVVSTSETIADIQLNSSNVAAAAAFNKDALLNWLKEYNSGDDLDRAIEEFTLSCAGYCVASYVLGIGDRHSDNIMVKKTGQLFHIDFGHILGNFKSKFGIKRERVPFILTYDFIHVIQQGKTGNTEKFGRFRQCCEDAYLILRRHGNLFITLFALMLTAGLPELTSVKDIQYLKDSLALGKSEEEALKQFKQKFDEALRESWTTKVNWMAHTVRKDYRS
T1 sequence (P27986 whole entry partner): as the sequence (P27986 whole entry partner) above
Sequence of PI3Kα WT (P42336 whole entry): as the sequence (P42336 whole entry H1047R) above, with R1047H counted along it
Sequence of PI3Kα WT (P27986 whole entry partner): as the sequence (P27986 whole entry partner) above

Cc1cc([C@@H](C)Nc2ccccc2C(=O)O)c2oc(-c3ccc4nn(C)cc4c3)cc(=O)c2c1 (single isomer, unassigned) [Example 38B]
IC50 [1, 5]: 0.05 µM
IC50 ([2]; Homo sapiens, T47D, 72 h): 0.04 µM
IC50 ([3]; Homo sapiens): 8.5 µM
IC50 (PI3Kα WT): 1290 nM
IC50 (PI3Kβ): 545 nM
clearance ([4]; male, CD1, mouse, plasma, intravenous, 1 mg/kg): 34 mL/min/kg
bioavailability ([4]; male, CD1, mouse, plasma, oral, 5 mg/kg): 45.5%
IC50 (PI3Kα H1047R mutant): 25 nM

C[C@@H](Nc1ccccc1C(=O)O)c1cc(Cl)cc2c(=O)cc(-c3ccc4nn(C)cc4c3)oc12 (single isomer, unassigned) [Example 98B]
IC50 [1, 6]: > 10 µM
IC50 [2]: > 10 µM
IC50 [3]: > 10 µM
IC50 (PI3Kα WT): 1340 nM
IC50 (PI3Kα H1047R mutant): 19.5 nM

CC(=O)N1CCN(c2ccc(-c3oc4c([C@@H](C)Nc5ccccc5C(=O)O)cc(C)cc4c(=O)c3C)cc2)CC1 (single isomer, unassigned) [Example 123A]
IC50 [1, 5]: 0.15 µM
IC50 ([2]; Homo sapiens, T47D, 72 h): 0.076 µM
IC50 ([3]; Homo sapiens): 5.6 µM
IC50 (PI3Kα WT): 1100 nM
IC50 (PI3Kβ): 6460 nM
IC50 (PI3Kα H1047R mutant): 37 nM

Cc1cc(C(C)Nc2ccccc2C(=O)O)c2oc(C3CCN(C(=O)C4CC4)CC3)cc(=O)c2c1 (centres unmarked) [Example 30, 2-((1-(2-(1-(cyclopropanecarbonyl)piperidin-4-yl)-6-methyl-4-oxo-4H-chromen-8-yl)ethyl)amino)benzoic acid]
IC50 [1, 5]: 4 µM
IC50 ([2]; Homo sapiens, T47D, 72 h): 1.87 µM
IC50 ([3]; Homo sapiens): > 10 µM

Cc1cc(C(C)Nc2ccccc2C(=O)O)c2oc(-c3cccnc3)cc(=O)c2c1 (centres unmarked) [Example 32, 2-((1-(6-methyl-4-oxo-2-(pyridin-3-yl)-4H-chromen-8-yl)ethyl)amino)benzoic acid]
IC50 [1, 5]: 1.38 µM
IC50 ([2]; Homo sapiens, T47D, 72 h): 0.75 µM
IC50 ([3]; Homo sapiens): > 10 µM

Cc1cc(C(C)Nc2ccccc2C(=O)O)c2oc(-c3ccncc3)cc(=O)c2c1 (centres unmarked) [Example 33, 2-((1-(6-methyl-4-oxo-2-(pyridin-4-yl)-4H-chromen-8-yl)ethyl)amino)benzoic acid]
IC50 [1, 5]: 0.42 µM
IC50 ([2]; Homo sapiens, T47D, 72 h): 0.32 µM
IC50 ([3]; Homo sapiens): > 10 µM

Cc1cc(C(C)Nc2ccccc2C(=O)O)c2oc(-c3ccn(C)c(=O)c3)cc(=O)c2c1 (centres unmarked) [Example 34, 2-((1-(6-methyl-2-(1-methyl-2-oxo-1,2-dihydropyridin-4-yl)-4-oxo-4H-chromen-8-yl)ethyl)amino)benzoic acid]
IC50 [1, 5]: 7.82 µM
IC50 ([2]; Homo sapiens, T47D, 72 h): 4.63 µM
IC50 ([3]; Homo sapiens): > 10 µM

Cc1cc(C(C)Nc2ccccc2C(=O)O)c2oc(-c3ccc4ncccc4c3)cc(=O)c2c1 (centres unmarked) [Example 35, 2-((1-(6-methyl-4-oxo-2-(quinolin-6-yl)-4H-chromen-8-yl)ethyl)amino)benzoic acid]
IC50 [1, 5]: 0.57 µM
IC50 ([2]; Homo sapiens, T47D, 72 h): 0.5 µM
IC50 ([3]; Homo sapiens): > 10 µM

Cc1cc(C(C)Nc2ccccc2C(=O)O)c2oc(-c3ccc4c(cnn4C)c3)cc(=O)c2c1 (centres unmarked) [Example 37, 2-((1-(6-methyl-2-(1-methyl-1H-indazol-5-yl)-4-oxo-4H-chromen-8-yl)ethyl)amino)benzoic acid]
IC50 [1, 5]: 0.8 µM
IC50 ([2]; Homo sapiens, T47D, 72 h): 0.42 µM
IC50 ([3]; Homo sapiens): > 10 µM

Cc1cc([C@H](C)Nc2ccccc2C(=O)O)c2oc(-c3ccc4nn(C)cc4c3)cc(=O)c2c1 [Example 38A, (S)-2-((1-(6-methyl-2-(2-menthyl-2H-indazol-5-yl)-4-oxo-411-chromen-8-yl)ethyl)amino)benzoic acid]
IC50 [1, 6]: > 10 µM
IC50 [2]: > 10 µM
IC50 [3]: > 10 µM

Cc1cc(C(C)Nc2ccccc2C(=O)O)c2oc(-c3ccc4nn(C)cc4c3)cc(=O)c2c1 (centres unmarked) [Example 38]
IC50 [1, 5]: 0.15 µM
IC50 ([2]; Homo sapiens, T47D, 72 h): 0.08 µM
IC50 ([3]; Homo sapiens): > 10 µM

Cc1cc(C(C)Nc2ccccc2C(=O)O)c2oc(-c3cnoc3)cc(=O)c2c1 (centres unmarked) [Example 39, 2-((1-(2-(isoxazol-4-yl)-6-methyl-4-oxo-4H-chromen-8-yl)ethyl)amino)benzoic acid]
IC50 [1, 5]: 2.49 µM
IC50 ([2]; Homo sapiens, T47D, 72 h): 1.98 µM
IC50 ([3]; Homo sapiens): > 10 µM

Cc1cc(C(C)Nc2ccccc2C(=O)O)c2oc(-c3ccc(N4CCOCC4)cc3)cc(=O)c2c1 (centres unmarked) [Example 42, 2-((1-(6-methyl-2-(4-morpholinophenyl)-4-oxo-4H-chromen-8-yl)ethyl)amino)benzoic acid]
IC50 [1, 5]: 0.2 µM
IC50 ([2]; Homo sapiens, T47D, 72 h): 0.21 µM
IC50 ([3]; Homo sapiens): > 10 µM

Cc1cc([C@@H](C)Nc2ccccc2C(=O)O)c2oc(-c3ccc4nn(C)cc4c3)c(C)c(=O)c2c1 [Example 49A, (R)-2-((1-(3,6-dimethyl-2-(2-methyl-211-indazol-5-yl)-4-oxo-4H-chromen-8-yl)ethyl)amino)benzoic acid]
IC50 [1, 6]: 0.09 µM
IC50 [2]: 0.07 µM
IC50 [3]: > 10 µM

Cc1cc(C(C)Nc2ccccc2C(=O)O)c2oc(-c3ccc(-c4cnn(C)c4)cc3)cc(=O)c2c1 (centres unmarked) [Example 95, 2-((1-(6-methyl-2-(4-(1-methyl-1H-pyrazol-4-yl)phenyl)-4-oxo-4H-chromen-8-yl)ethyl)amino)benzoic acid]
IC50 (PI3Kβ): 1220 nM

CC(Nc1ccccc1C(=O)O)c1cc(Cl)cc2c(=O)cc(-c3ccc4nn(C)cc4c3)oc12 (centres unmarked) [Example 98, 2-((1-(6-chloro-2-(2-methyl-2H-indazol-5-yl)-4-oxo-4H-chromen-8-yl)ethyl)amino)benzoic]
IC50 (PI3Kβ): 1150 nM

Cc1cc(C(C)Nc2ccccc2C(=O)O)c2oc(-c3cc(C)c4nn(C)cc4c3)cc(=O)c2c1 (centres unmarked) [Example 109, 2-((1-(2-(2,7-dimethyl-21-indazol-5-yl)-6-methyl-4-oxo-4H-chromen-8-yl)ethyl)amino)benzoic acid]
IC50 [1, 5]: 0.16 µM
IC50 ([2]; Homo sapiens, T47D, 72 h): 0.22 µM
IC50 ([3]; Homo sapiens): > 10 µM

Cc1cc(C(C)Nc2ccc(Cl)nc2C(=O)O)c2oc(-c3ccc4nn(C)cc4c3)cc(=O)c2c1 (centres unmarked) [Example 110, 6-chloro-3-((1-(6-methyl-2-(2-methyl-2-indazol-5-yl)-4-oxo-4H-chromen-8-yl)ethyl)amino)picolinic acid]
IC50 ([2]; Homo sapiens, T47D, 72 h): 0.087 µM
IC50 ([3]; Homo sapiens): > 10 µM
IC50 (PI3Kβ): > 10000 nM

Cc1cc(C(C)Nc2ccccc2S(N)(=O)=O)c2oc(-c3ccc4nn(C)cc4c3)c(C)c(=O)c2c1 (centres unmarked) [Example 131, 2-((1-(3,6-dimethyl-2-(2-methyl-2H-indazol-5-yl)-4-oxo-4H-chromen-8-yl)ethyl)amino)benzenesulfonamide]
IC50 ([1]; Homo sapiens, MDA-MB-453, 72 h): 0.059 µM
IC50 ([2]; Homo sapiens): 0.055 µM
IC50 ([3]; Homo sapiens): > 10 µM

Cc1cc([C@@H](C)Nc2ccccc2C(=O)O)c2oc(-c3ccc(OCCN(C)C)cc3)c(C)c(=O)c2c1 [Example 140, (R)-2-((1-(2-(4-(2-(dimethylamino)ethoxy)phenyl)-3,6-dimethyl-4-oxo-41-chromen-8-yl)ethyl)amino)benzoic acid]
IC50 [1, 5]: 0.029 µM
IC50 ([2]; Homo sapiens, T47D, 72 h): 0.041 µM
IC50 ([3]; Homo sapiens): > 10 µM
IC50 (PI3Kα WT): 2390 nM
IC50 (PI3Kβ): > 10000 nM
IC50 (PI3Kα H1047R mutant): 42.3 nM

Cc1cc([C@@H](C)Nc2ccccc2C(=O)O)c2oc(-c3ccc(CN4CCN(C)C(=O)C4)cc3)c(C)c(=O)c2c1 [Example 148, (R)-2-((1-(3,6-dimethyl-2-(4-((4-methyl-3-oxopiperazin-1-yl)methyl)phenyl)-4-oxo-4H-chromen-8-yl)ethyl)amino)benzoic acid]
IC50 ([2]; Homo sapiens, T47D, 72 h): 0.066 µM
IC50 ([3]; Homo sapiens): > 10 µM
IC50 (PI3Kα WT): 4340 nM
IC50 (PI3Kβ): > 10000 nM
IC50 (PI3Kα H1047R mutant): 48.5 nM

Cc1cc([C@@H](C)Nc2ccccc2C(=O)O)c2oc(-c3ccc(Cc4cnn(C)c4)cc3)c(C)c(=O)c2c1 [Example 151, 2-[[(1R)-1-[3,6-dimethyl-2-[4-[(1-methylpyrazol-4-yl)methyl]phenyl]-4-oxo-chromen-8-yl]ethyl]amino]benzoic acid]
IC50 [1, 5]: 0.089 µM
IC50 ([2]; Homo sapiens, T47D, 72 h): 0.058 µM
IC50 ([3]; Homo sapiens): > 10 µM

CC(=O)N1CCN(c2ccc(-c3oc4c([C@@H](C)Nc5ccccc5C(=O)O)cc(C)cc4c(=O)c3C)cc2F)CC1 [Example 154, (R)-2-((1-(2-(4-(4-acetylpiperazin-1-yl)-3-fluorophenyl)-3,6-dimethyl-4-oxo-41H-chromen-8-yl)ethyl)amino)benzoic acid]
IC50 [1, 5]: 0.086 µM
IC50 ([2]; Homo sapiens, T47D, 72 h): 0.074 µM
IC50 ([3]; Homo sapiens): > 10 µM

(R)-2-((1-(6-methyl-2-(41-methyl-1H-pyrazol-4-yl)phenyl)-4-oxo-4H-chromen-8-yl)ethyl)amino)benzoic acid [Example 95A]
IC50 [2]: 0.09 µM
IC50 [3]: > 10 µM
IC50 (PI3Kα WT): 1260 nM
Cmax [4, 7]: 102 ng/mL
MRT [4, 7]: 7.64 h
IC50 (PI3Kα H1047R mutant): 12 nM
